Test results published in patent publication US8686028B2, “Substituted benzfurochromenes and related compounds for the prevention and treatment of bone related disorders” (Council of Scientific & Industrial Research, priority 2008, dated 2014).
Values belong to the compound of their own block, whether it stands above or below them.

Columns and labels:
Calvarial osteoblasts = assay: Alkaline phosphatase (ALP) activity for osteoblast differentiation, calvarial osteoblasts; type: cell-based, rat; conditions: for stimulation of ALP activity: osteoblasts, concentrations not given
Description: (§1) Neonatal rat calvarial cell cultures are prepared as described previously (Endocrinology 145:3451) using slight modification. Briefly, for primary osteoblast cell cultures, frontal and parietal bones from Sprague-Dawley rat neonates (1-3 day old) are digested in 0.1% collagenase/0.1% dispase in α-MEM to obtain 5 sequential digests. The second through fifth digests are combined and grown to confluence at 37° C. and 5% CO2 in air in α-MEM, supplemented with 10% fetal bovine serum (FBS), 2 mM glutamine, 100 U/ml penicillin-streptomycin, Non-essential amino acid solution and sodium pyruvate.
70 to 80% confluent Calvarial osteoblasts were treated with μM S006-1709 for 48 h in the presence of ascorbate and glycerophosphate. At the end of incubation period, total ALP activity was measured with a method using p-nitrophenylphosphate (PNPP) as substrate. The reaction mixture contained diethanolamine buffer (1 mol/L, pH 9.8), 0.5 mmol/L MgCl2.6H2O, and 10 mmol/L PNPP. ALP activity was measured by taking OD of the amount of colored product formed by the dephosphorylation of PNPP at 405 nm. […] In addition, the effect of S006-1709 on mineralization of calvarial osteoblasts was studied.
We then studied its effect in osteoblast differentiation in both calvarial and bone marrow osteoblasts. Confluent calvarial osteoblasts (70 to 80%) were treated with S006-1710 for 48 h in the presence of ascorbate and glycerophosphate at concentrations ranging from 10^−16M to 10^−6M. At the end of incubation period, total ALP activity was measured with the same method used previously using p-nitrophenylphosphate (PNPP) as substrate.
70 to 80% confluent Calvarial osteoblasts were treated with S007-1351 for 48 h in the presence of ascorbate and glycerophosphate. At the end of incubation period, total ALP activity was measured with a method using p-nitrophenylphosphate (PNPP) as substrate. The reaction mixture contained diethanolamine buffer (1 mol/L, pH 9.8), 0.5 mmol/L MgCl2.6H2O, and 10 mmol/L PNPP. ALP activity was measured by taking OD of the amount of colored product formed by the dephosphorylation of PNPP at 405 nm.
70 to 80% confluent calvarial osteoblasts were treated with S007-1352 for 48 h in the presence of ascorbate and glycerophosphate at concentrations ranging from 10^−12M to 10^−6 M. At the end of incubation period, total ALP activity was measured with the same method used previously using p-nitrophenylphosphate (PNPP) as substrate.

3T3-L1 cells = assay: Anti-adipogenic effect (Oil Red O) in 3T3-L1 cells; type: cell-based, mouse; conditions: 3T3L1, both concentrations (10^−10 M and 10^−12M)
Description: The best characterized model of adipogenesis in vitro is the 3T3-L1 cell line, a substrain of Swiss 3T3 mouse cell line. 3T3-L1 cells propagated under normal conditions have a fibroblastic phenotype. However, when treated with a combination of dexamethasone, isobutylmethylxanthine (IBMX or MIX) and insulin, 3T3-L1 cells adopt a rounded phenotype and within 5 days begin to accumulate lipids intracellularly in the form of lipid droplets.
3T3-L1 cells were plated in 48-well plates 40,000 cells/well. The cells were incubated in DMEM containing fetal calf serum for 2 days until the cells become confluent. The cells were then incubated with Adipogenesis initiation media which contains DMEM with 10% FCS, IBMX and dexamethasone for 48 hrs at 37° C., 5% CO2. After two days the media was replaced with Adipogenesis Progression media which contains DMEM/10% FCS and insulin for 48 hrs at 37° C., 5% CO2, Media was again changed gently to Adipogenesis maintenance media for 48 hrs at 37° C., 5% CO2. At the end of eight days of experiment the cells were fixed and then stained with Oil Red O which stains lipid droplets. The dye was extracted and extracted dye was transferred to a 96-well plate and absorbance of extracted Oil Red O was measured in a plate reader at 490 nm.
Compounds S006-1709, S007-1351-53, S007-1495 and S007-1500 were tested in vitro in 3T3L1 cell line at two concentrations 10^−10 M and 10^−12M. FIG. 8A depicts the adipocytes formed at the end of the 8 day experiment. The fixed cells were stained with Oil Red O. The dye was then extracted and quantified.

[1] = test system: Calvarial osteoblast cells; assay: MTT cell proliferation assay; type: cell-based, rat; conditions: 10^−10 M to 10^−6M, 24 hrs
Description: as §1
MTT [3-(4,5-dimethylthiazol-2-yl)-2,5-diphenyltetrazolium bromide] assay, first described by Mosmann in 1983, is based on the ability of a mitochondrial dehydrogenase enzyme from viable cells to cleave the tetrazolium rings of the pale yellow MTT and form a dark blue formazan crystals which is largely impermeable to cell membranes, thus resulting in its accumulation within healthy cells. Solubilisation of the cells by the addition of a detergent results in the liberation of the crystals which are solubilized. The number of surviving cells is directly proportional to the level of the formazan product created. The color can then be quantified using a simple colorimetric assay. The results can be read on a multiwell scanning spectrophotometer (Mosmann T. Rapid colorimetric assay for cellular growth and survival: application to proliferation and cytotoxicity assays. J Immunol Methods. 1983 Dec. 16; 65(1-2):55-63).
Calvarial osteoblast cells plated at a density of 2.0×10^3 cells/200 ul in 96 wells plates. Cells were grown to 60% confluency and then treated with following compounds S006-1709, S006-1710, 5006-1711, S006-1713 and; S006-1714 at concentrations ranging from 10^−10 M to 10^−6M for 24 hrs. After treatment media was removed and 10 mM MTT was added solution in phenol red free DMEM media. After an incubation of 4 hrs the MTT solution was removed. Blue colored crystals were formed which were dissolved in DMSO and absorbance was read on ELISA plate reader at 570 nm wavelength.

[2] = test system: ovariectomized immature female rats; assay: Estrogenicity, uterine fresh weight in ovariectomized immature female rats; type: in vivo, rat; conditions: three consecutive days, vehicle 16.46
Description: (§2) 21 day old immature female rats (25-30 grams) were ovariectomized and given 7 days post-operative rest. Thereafter they were treated orally with the test agent (10 mg/Kg body weight) or with vehicle or Ethynyl estradiol, the reference standard for three consecutive days. For anti-estrogenicity, other than the test chemical, ethynyl estradiol (0.01 mg/kg) was given at 15 minutes interval before the test chemical. Autopsy was done 24 h after last treatment and uterine fresh weight was taken.

[3] = test system: ovariectomized immature female rats; assay: Anti-estrogenicity, uterine fresh weight with ethynyl estradiol co-treatment; type: in vivo, rat; conditions: 10 mg/Kg oral plus ethynyl estradiol 0.01 mg/kg
Description: as §2

[4] = test system: Immature 21 d old female SD rat; assay: In vivo efficacy, BMD in immature female SD rats; conditions: 10 mg/kg daily, one month; vehicle = 100
Description: Immature 21 d old female SD rat model was chosen, animals were randomized into four groups and treated with a daily dose of test agent or vehicle for one month and autopsied on day 31.
[…], the animals were shifted to metabolic cage for acclaimatization for 24 h with food and water. Post acclaimatization animals were further left in metabolic cage for 24 h with water but no food. Blood and urine samples were collected after 24 h. Various biochemical parameters like serum calcium, serum phosphorus, serum osteocalcin, serum alkaline phosphatase (ALP) were evaluated. The animals were autopsied on day 31 and lumbar vertebrae, femur and tibia bones were isolated, cleaned and fixed in 70% ethanol in saline and stored at 4° C. until BMD measurement. Initial and final body weight and uterine weight at autopsy were recorded. BMD measurements of region of interest (lumbar: global, L1-L4; femur: global, neck and mid-shaft; tibia: global, proximal and tibio-fibula junction point) was performed using a bone densitometer (Model 4500 Elite, Hologic) fitted with commercially available software (QDR 4500 ACCLAIM series) for a fan-beam DXA system that permits determination of bone densitometry and measurement of body composition in small animals in vivo.

[5] = Pharmacokinetic studies in Sprague Dawley rats; type: in vivo; conditions: rat, plasma, SD rats, oral dose of 5 mg/kg
Description: In-vivo pharmacokinetic parameters were generated in Sprague Dawley rats at a dose of 5 mg/kg by oral route of administration. The blood samples were drawn at 0.25, 0.5, 0.75, 1.0, 1.5, 2.0, 2.5, 4.0, 6, 8, 10, 12, 18, 24, 28, 36 and 48 hours, processed and analyzed by Liquid Chromatography-Mass Spectrometry (LC-MS). Plasma concentration at different time points were plotted to give Plasma Concentration Time Profile and the data was fitted non-compartmentally using Win NonLin 5.1 version software and the estimates of pharmacokinetic parameters were derived with SD mean values.

Structure (SMILES): O=c1c(-c2ccccc2O)coc2c(O)c(O)ccc12 [Compound S007-1351, 7,8-Dihydroxy-3-(2-hydroxy-phenyl)-chromen-4-one]
- osteoblast ALP activity vs vehicle control (Calvarial osteoblasts; calvarial osteoblasts, 48 h, 10^−12M to 10^−6M): significant increase
- effect on adipogenesis (3T3-L1 cells): inducers of adipogenesis
- melting point: 240 to 242 °C

Structure (SMILES): COc1ccc(-c2coc3cc(O)ccc3c2=O)c(O)c1 [Compound S006-1714, 7-Hydroxy-3-(2-hydroxy-4-methoxy-phenyl)-chromen-4-one]
- effect on osteoblast proliferation (MTT) [1]: did not have any effect
- stimulation of ALP activity (Calvarial osteoblasts): non-significant
- melting point: 210 to 212 °C

Structure (SMILES): Cc1c(OCC#N)ccc2c1OCC1c3ccccc3OC21 (stereo not drawn) [Compound S007-1501, (4-Methyl-6a,11a-dihydro-6H-benzo[4,5]furo[3,2-e]chromen-3-yloxy)-acetonitrile]
- stimulation of ALP activity (Calvarial osteoblasts): non-significant

Structure (SMILES): C#C[C@]1(O)CC[C@H]2[C@@H]3CCc4cc(O)ccc4[C@H]3CC[C@@]21C [Ethnyl Estradiol, Ethynyl estradiol, reference compound]
- Estrogenic Activity (uterine fresh weight) ([2]; reference standard, 0.01 mg/Kg): 98.3

Structure (SMILES): COc1ccc(-c2coc3cc(O)ccc3c2=O)c(OC)c1 [Compound S006-1713, 3-(2,4-Dimethoxy-phenyl)-7-hydroxy-chromen-4-one]
- effect on osteoblast proliferation (MTT) [1]: did not have any effect
- stimulation of ALP activity (Calvarial osteoblasts): non-significant

Structure (SMILES): O=c1c(-c2ccccc2O)coc2cc(O)c(Cl)cc12 [Compound S007-1354, 6-Chloro-7-hydroxy-3-(2-hydroxy-phenyl)-chromen-4-one]
- stimulation of ALP activity (Calvarial osteoblasts): non-significant
- melting point: > 250 °C

Further lines, with some results ahead:

- stimulation of ALP activity (Calvarial osteoblasts): non-significant
- melting point: 196 to 198 °C
Structure (SMILES): Cc1c(O)ccc2c(=O)c(-c3ccccc3O)coc12 [Compound S007-1498, 7-Hydroxy-3-(2-hydroxy-phenyl)-8-methyl-chromen-4-one]

- melting point: 96 to 98 °C
Structure (SMILES): CC(C)Oc1ccc2c(c1)OCC1c3ccccc3OC21 (stereo not drawn) [Compound S-008-0398, 3-Isopropoxy-6a,11a-dihydro-6H-benzofuro[3,2-c]chromene]

- melting point: 72 to 74 °C
Structure (SMILES): C=CCOc1ccc2c(c1)OCC1c3ccccc3OC21 (stereo not drawn) [Compound S-008-0625, 3-(Allyloxy)-6a,11a-dihydro-6H-benzofuro[3,2-c]chromene]

- stimulation of ALP activity (Calvarial osteoblasts): non-significant
- melting point: 228 to 230 °C
Structure (SMILES): COc1ccccc1-c1coc2cc(O)c(Cl)cc2c1=O [Compound S007-1355, 6-Chloro-7-hydroxy-3-(2-methoxy-phenyl)-chromen-4-one]

- melting point: 202 to 204 °C
Structure (SMILES): c1ccc2c(c1)OC1c3ccc(OCCN4CCCCC4)cc3OCC21 (stereo not drawn) [Compound S-008-0399, 1-(2-(6a,11a-Dihydro-6H-benzofuro[3,2-c]chromen-3-yloxy)ethyl)piperidine]

- stimulation of ALP activity (Calvarial osteoblasts): non-significant
- melting point: 160 to 162 °C
Structure (SMILES): Cc1c(O)ccc2c1OCC1c3ccccc3OC21 (stereo not drawn) [Compound S007-1499, 4-Methyl-6a,11a-dihydro-6H-benzo[4,5]furo[3,2-c]chromen-3-ol]

- AUC ([5]; read-out: Area under curve (AUC)): 32.1 ± 12 ng·h/mL
- Cmax ([5]; read-out: Maximum plasma concentration (Cmax)): 17.5 ± 1.76 ng/mL
- half-life ([5]; read-out: elimination half life (T1/2) (converted)): 2.5 h
- MRT ([5]; read-out: mean residence time (MRT)): 3.5 h
- Tmax ([5]; read-out: time to achieve maximum plasma concentration (tmax) (converted)): 0.25 h
- melting point: 148 to 152 °C
Structure (SMILES): Oc1ccc2c(c1)OCC1c3ccccc3OC21 (stereo not drawn) [Compound S006-1709, 6a,11a-Dihydro-6H-benzo[4,5]furo[3,2-c]chromen-3-ol]
- effect on osteoblast proliferation (MTT) [1]: no effect
- Estrogenic Activity (uterine fresh weight) ([2]; 10 mg/Kg oral): 15.8
- Anti-Estrogenic Activity (uterine fresh weight) [3]: 96.86
- Anti-Estrogenic Activity, % (second line of cell) ([3]; relative to ethynyl estradiol): −1.5%^
- Change in BMD, Femur Global [4]: 138.75
- Change in BMD, Femur Neck [4]: 141
- Change in BMD, Femur Shaft [4]: 167
- Change in BMD, Lumber Vertebra Global [4]: 120
- Change in BMD, Lumber Vertebra LV1 [4]: 126
- Change in BMD, Lumber Vertebra LV2 [4]: 124
- Change in BMD, Lumber Vertebra LV3 [4]: 90.3
- Change in BMD, Lumber Vertebra LV4 [4]: 125
- Change in BMD, Tibia Global [4]: 133
- Change in BMD, Tibia Head [4]: 115
- Change in BMD, Tibia TFSP [4]: 124
